The text below walks through data of paper PMC2714839, “Evidence for a role of NTS2 receptors in the modulation of tonic pain sensitivity” (Molecular Pain, 2009).

The structures appear in SMILES notation. “And” between values parts separate entries of the source, which are not always exact repeats. Equal entries are not always repeated. Where two headings read alike, the source gives them in different places. Non-standard residues stand in square brackets, D forms with d. Residues, ends and D or L forms follow the SMILES beside them. Ala(indol-4-yl) = N[C@@H](Cc1cccc2[nH]ccc12)C(=O)O; NMeR = CN[C@@H](CCCNC(=N)N)C(=O)O; Tle = CC(C)(C)[C@H](N)C(=O)O

Usually IC50 stands for the point on the concentration scale where inhibition reaches its midpoint.

The test system of assay [1] is c-fos. Description: Formalin-evoked c-fos-like immunoreactivity in lumbar spinal cord (L4-L5). The assay is classed as in vivo. Conditions: rat. The procedure:
At 45 min following formalin injection, rats were deeply anesthetized and perfused intraaortically with ice-cold 4% paraformaldehyde (Fisher Scientific, Montreal, QC, Canada) in 0.1 M PB, pH 7.4. The spinal cord was isolated and then cryoprotected overnight at 4°C in 30% sucrose in phosphate-buffered saline (PBS). Prior to tissue sectioning, an incision was made in the ventral horn of the contralateral side to allow spatial positioning of the spinal cord for further analysis. Transverse frozen sections (35-μm-thick) were then cut from the lumbar segment (L4-L5) of the spinal cord with a sliding microtome and processed by a free-floating slice immunohistochemistry procedure. After elimination of endogenous peroxidase activity with 0.3% hydrogen peroxide in PBS for 1 h, the tissue sections were rinsed three times in PBS and incubated for 1 h at RT in a blocking solution of 3% normal goat serum (NGS) and 0.3% Triton X-100 in PBS. After washing, free-floating sections were incubated overnight at RT with the rabbit anti-c-fos polyclonal antibody diluted 1:1000 in PBS (sc-52, Santa Cruz Biotechnology, Santa Cruz, CA, USA), containing 1% NGS and 0.3% Triton X-100. The tissue was then washed three times in PBS and transferred to a goat anti-rabbit biotinylated secondary IgG complex (1:200 in 1% NGS and 0.3% Triton X-100 in PBS; Vector, Burlingame, CA, USA) for 1 h at RT followed by exposing to avidin-biotin horseradish peroxydase complex (1:100; Vectastain ABC-Elite kit, Vector Laboratories, Burlington, ON, Canada) for 1 h at RT. After the final wash with PBS, the chromagen was developed using nickel intensified 3,3'-diaminobenzidine (DAB, 0.01%) and 0.3% H2O2. Finally, the sections were thoroughly rinsed with PBS, mounted onto slides, dehydrated in a series of graded alcohols, defatted in xylene, and placed on coverslips.
Sections were visually scanned and photographed using a bright-field microscope (Leica DM4000B; Leica Microsystems, Toronto, Canada). The individual sections were printed and overlaid with an acetate sheet on which the distribution of c-fos immunoreactive neurons was then plotted. […] For the quantification of c-fos labeled neurons, each section of the spinal cord was divided into four regions of interest: the superficial laminae (laminae I, IIo and IIi), the nucleus proprius (laminae III and IV), the neck of the dorsal horn (laminae V and VI) and the deep lamina X according to the cytoarchitectonic organization of the spinal cord. The number of c-fos immunoreactive neurons in the four defined regions was determined by averaging the counts made in 10–15 sections and expressed as mean ± S.E.M. of these values for all the rats in that treatment group for statistical analysis of the different experimental conditions. […] A Dunnett's t-test was applied to assess differences between the drug and vehicle groups. A value of P < 0.05 was considered statistically significant.

Assay [2] relates to formalin-induced nociceptive behaviors. The experiment in a line: Formalin test, cumulative time in stereotypic behaviors (lifting; flinching/licking/biting). The assay is classed as in vivo. Conditions: rat. How it is done:
Experiments were performed with adult male Sprague-Dawley rats (250–300 g; Charles River, St-Constant, QC, Canada) kept on a 12 h light/dark cycle and allowed ad libitum access to food and water. Animals were individually acclimatized to Plexiglas enclosures for 3 consecutive days prior to testing. The formalin test was always performed by […] in a quiet room and between 08.00 AM and 12.00 PM to reduce any variation related to circadian rhythm. The experimental procedures in this study were approved by the Animal Care Committee of the University of Sherbrooke and were in accordance with policies and directives of the Canadian Council on Animal Care.
Behavioral experiments aimed at establishing the effects of NT analogs and NTS2-selective agonists on formalin-induced nocifensive behaviors. To this end, rats were lightly anesthetized with isoflurane (Abbott Laboratories, Montreal, QC, Canada) and injected intrathecally, at the L5-L6 intervertebral space, with either NT (6 μg/kg), NT69L (5 μg/kg), JMV-431 (5 to 60 μg/kg), or levocabastine (0.5 and 5 μg/kg) diluted in 30 μl of physiological saline (0.9% NaCl), 5 min before formalin administration. Control animals received physiological saline.
Antinociception was assessed using the formalin test as a model of persistent pain. […]
Following this, the rats were placed in clear plastic chambers (30 × 30 × 30 cm) positioned over a mirror angled at 45°, in order to allow an unobstructed view of the paws, and their behaviors were recorded for the next 60 min. […] Nocifensive behaviors were assessed using a weighed score as described previously. […] The weighted nociceptive score, ranging from 0 to 3, is calculated by multiplying the time spent in each category by its assigned weight category, summing these products and dividing by the total time for each 3 min block of time. The total area under the curve (A.U.C.) for the inflammatory phase (phase 2) was calculated between 21 to 60 min for each animal. Phase 2 was further subdivided in early (21–39 min) and late (40–60) phases and analyzed as separate events. Formalin-induced pain related behavior may also be quantified by monitoring the number and the duration of episodes of different behavioral endpoints. The cumulative time spent in both lifting (state 2) and flinching/licking/biting (state 3), reflecting behavioral reactions integrated at different CNS levels, were also determined during the inflammatory phase (21 to 60 min following formalin).
Data are presented as means ± standard errors of the mean (S.E.M.). […] Nociceptive scores over the 3 min time blocks were analyzed using a two-way analysis of variance for repeated measures, with comparisons between experimental groups and the control group at each time interval using Bonferroni's post hoc t-test. […]

For assay [3] the test system is unchanged. The experiment in a line: Formalin test, weighted pain score (A.U.C.) after intrathecal pretreatment. The class given is in vivo. The following applies: rat, i.t. 5 μg/kg; for reduction of pain behaviors in the tonic phase (phase 2, 21-60 min, A.U.C.) vs vehicle: 5 min before formalin.
Description: Experiments were performed with adult male Sprague-Dawley rats (250–300 g; Charles River, St-Constant, QC, Canada) kept on a 12 h light/dark cycle and allowed ad libitum access to food and water. Animals were individually acclimatized to Plexiglas enclosures for 3 consecutive days prior to testing. The formalin test was always performed by three different experimenters in a quiet room and between 08.00 AM and 12.00 PM to reduce any variation related to circadian rhythm.
Antinociception was assessed using the formalin test as a model of persistent pain. For this purpose, rats were placed for a 60-min habituation period in the experimentation room. Thereafter, rats received a 50 μl subcutaneous injection of diluted 2% formaldehyde (i.e. 5% formalin, Fisher Scientific, Montreal, QC, Canada) into the plantar surface of the right hind paw.
Following this, the rats were placed in clear plastic chambers (30 × 30 × 30 cm) positioned over a mirror angled at 45°, in order to allow an unobstructed view of the paws, and their behaviors were recorded for the next 60 min. […] Nocifensive behaviors were assessed using a weighed score as described previously [43, 44]. […] The weighted nociceptive score, ranging from 0 to 3, is calculated by multiplying the time spent in each category by its assigned weight category, summing these products and dividing by the total time for each 3 min block of time. The total area under the curve (A.U.C.) for the inflammatory phase (phase 2) was calculated between 21 to 60 min for each animal. Phase 2 was further subdivided in early (21–39 min) and late (40–60) phases and analyzed as separate events [45]. […] The cumulative time spent in both lifting (state 2) and flinching/licking/biting (state 3), reflecting behavioral reactions integrated at different CNS levels, were also determined during the inflammatory phase (21 to 60 min following formalin) [42].
Data are presented as means ± standard errors of the mean (S.E.M.). All calculations and statistical analysis were performed using Prism 4.0 and Instat 3.05 (Graph Pad Software, San Diego, CA, USA). Nociceptive scores over the 3 min time blocks were analyzed using a two-way analysis of variance for repeated measures, with comparisons between experimental groups and the control group at each time interval using Bonferroni's post hoc t-test. A one-way ANOVA followed by Dunnett's post hoc t-test was used to determine the significance of differences in the A.U.C. and in the time spent in states 2 and 3. A difference in responses between groups was considered significant with P values; * P < 0.05 and ** P < 0.01.
Assay [4] addresses T1, rNTS1 (Rattus norvegicus, UniProt P20789).
T1 construct: expressed in transfected cells; membrane homogenates
Description: Competition binding of [3H]-NT to HEK293 cell membranes expressing rNTS1. How it is done: (§1) Cells were fed every 2 days with 20 ml of medium. 70–80% confluent HEK 293 cells were washed twice with phosphate-buffered saline solution, scraped into 50 mM Tris-HCl (pH 7.4) buffer containing 1 mM EDTA and 250 mM sucrose and centrifuged at 15,000 g for 12 min at 4°C. Pellets were then re-suspended in hypotonic TE buffer (50 mM Tris-HCl (pH 7.4) buffer containing 1 mM EDTA) and membrane homogenates were recovered by centrifugation for 30 min at 4°C. The final protein concentration was determined with the use of the BCA assay kit (Pierce Biotechnology Inc, Rockford, IL).
(§2) Binding was terminated by two successive additions of 3 ml of ice-cold buffer and filtering under vacuum through GF/B filters presoaked in binding buffer containing 0.2% polyethyleneimine (48-well Brandel Harvester). Filters were placed in scintillation vials containing 5 ml scintillation liquid (Ecolite) and then counted in a beta counter.

For assay [5], the target named is T2, rNTS2 (Rattus norvegicus, UniProt Q63384).
T2 construct: expressed in transfected cells; membrane homogenates
T2 sequence (Q63384 1-416): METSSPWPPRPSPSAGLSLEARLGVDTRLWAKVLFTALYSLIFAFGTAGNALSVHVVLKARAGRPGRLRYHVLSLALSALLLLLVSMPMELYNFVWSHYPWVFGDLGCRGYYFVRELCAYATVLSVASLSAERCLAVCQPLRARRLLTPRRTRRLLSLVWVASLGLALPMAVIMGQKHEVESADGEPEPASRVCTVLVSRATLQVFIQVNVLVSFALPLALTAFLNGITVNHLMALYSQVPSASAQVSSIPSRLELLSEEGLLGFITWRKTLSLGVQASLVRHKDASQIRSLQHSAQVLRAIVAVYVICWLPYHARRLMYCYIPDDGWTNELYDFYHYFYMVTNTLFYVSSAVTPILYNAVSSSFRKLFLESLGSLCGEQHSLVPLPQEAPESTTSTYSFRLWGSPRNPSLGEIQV
The experiment in a line: Competition binding of [3H]-NT to HEK293 cell membranes expressing rNTS2. The procedure: as §1, §2

The mark [6] stands for this setting: i.t. 5 μg/kg, 45 min after formalin.

T1 sequence (P20789 whole entry): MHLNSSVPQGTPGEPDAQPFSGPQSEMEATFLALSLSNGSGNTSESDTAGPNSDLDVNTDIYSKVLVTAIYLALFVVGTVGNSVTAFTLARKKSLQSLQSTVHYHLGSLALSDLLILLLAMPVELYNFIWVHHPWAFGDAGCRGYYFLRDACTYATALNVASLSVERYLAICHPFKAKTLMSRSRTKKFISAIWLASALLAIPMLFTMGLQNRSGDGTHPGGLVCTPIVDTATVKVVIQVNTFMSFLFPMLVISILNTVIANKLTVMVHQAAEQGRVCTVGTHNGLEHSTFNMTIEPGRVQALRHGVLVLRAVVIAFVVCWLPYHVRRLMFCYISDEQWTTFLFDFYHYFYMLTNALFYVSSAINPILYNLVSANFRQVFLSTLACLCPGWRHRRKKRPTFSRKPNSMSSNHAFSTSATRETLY

Consider `CN[C@@H](CCCNC(=N)N)C(=O)N[C@@H](CCCCN)C(=O)N1CCC[C@H]1C(=O)N[C@@H](Cc1cccc2[nH]ccc12)C(=O)N[C@H](C(=O)N[C@@H](CC(C)C)C(=O)O)C(C)(C)C` [NT69L, N-methyl-Arg-Lys-Pro-L-neo-Trp-tert-Leu-Leu-OH] (H-[NMeR]KP[Ala(indol-4-yl)][Tle]L-OH; N-terminus assumed), for which the “effect on spinal nociceptive neuronal responses (c-fos) induced by formalin” value in assay [1] (data not shown) is listed as “attenuated”. Also, the “reduction of lifting time during the tonic phase” value in assay [2] (i.t. NT69L 5 μg/kg) is reported as 74 ± 13%. Moreover, the “attenuation of flinching, licking and biting responses (maximum antagonism)” value in assay [2] (i.t. NT69L 5 μg/kg, tonic phase) stood at 70 ± 15%. In addition, in assay [3], the “decrease in A.U.C. in early phase 2 (21-39 min)” value is 70 ± 13%; the “decrease in A.U.C. in late phase 2 (40-60 min)” value was 48% ± 19; the “reduction of pain behaviors in the tonic phase (phase 2, 21-60 min, A.U.C.) vs vehicle” value was found to be 59 ± 13%. The IC50 in assay [4] is 2.2 ± 0.5 nM. In assay [5] (IC50 rNTS2), this compound showed an IC50 of 3.7 ± 0.4 nM.

For the compound `CC[C@H](C)[C@H](NC[C@H](Cc1ccc(O)cc1)NC(=O)[C@@H]1CCCN1C(=O)[C@H](CCCNC(=N)N)NC(=O)[C@H](CCCNC(=N)N)NC(=O)OC(C)(C)C)C(=O)N[C@@H](CC(C)C)C(=O)O` [JMV-431, Boc-Arg-ArgPro-Tyrø(CH2NH)-Ile-Leu-OH], the IC50 was determined as 4740 ± 135 nM in assay [4] and 19 ± 3.2 nM in assay [5] (IC50 rNTS2).

As to `C[C@@H]1CN([C@H]2CC[C@](C#N)(c3ccc(F)cc3)CC2)CC[C@]1(C(=O)O)c1ccccc1` [Levocabastine, levocabastine], in assay [1] (setting [6]), the “reduction of contralateral c-fos immunoreactivity, lamina X” value worked out at 98 ± 1%; the “reduction of contralateral c-fos immunoreactivity, laminae I-II” value was 74 ± 7%; the “reduction of contralateral c-fos immunoreactivity, laminae III-IV” value is listed as 72 ± 7%; the “reduction of contralateral c-fos immunoreactivity, laminae V-VI” value amounted to 77 ± 5%. Moreover, in assay [1] (setting [6]), the “reduction of number of c-fos-LI neurons, ipsilateral laminae I-II” value was 26 ± 7%; the “reduction of number of c-fos-LI neurons, ipsilateral laminae III-IV” value is given as 60 ± 5%; the “reduction of number of c-fos-LI neurons, ipsilateral laminae V-VI” value is listed as 53 ± 3%; the “reduction of number of c-fos-LI neurons, ipsilateral laminae X” value turned out to be 56 ± 8%. For the same compound, in assay [2] (i.t., all doses tested), the “effect on formalin-evoked licking/shaking/biting behaviors, phase 2” value is “do not reverse”. For the same compound, the “inhibition of cumulative time spent in lifting, phase 2 (21-60 min)” value in assay [2] (i.t., maximum reached over the doses tested (JMV-431 5-60 μg/kg, levocabastine 0.5-5 μg/kg)) is 73 ± 5%. In addition, in assay [3], the “decrease in A.U.C. in early phase 2 (21-39 min)” value was “no effect”; the “decrease in A.U.C. in late phase 2 (40-60 min)” value was 48 ± 16%; the “reduction of pain behaviors in the tonic phase (phase 2, 21-60 min, A.U.C.) vs vehicle” value is 29 ± 5%. In assay [4] (read-out: IC50 rNTS1), the IC50 is more than 10000 nM. The IC50 in assay [5] (inhibition of 2 nM [3H]-NT binding, HEK293 cell membranes expressing rat NTS2, read-out: IC50 rNTS2) is 3 nM and 2.7 nM.
